What was measured:
[1] = system: obese diabetic Zucker rats; test: Gastric emptying by gamma scintigraphy with camostat, diabetic rats; format: in vivo; settings: diabetic Zucker rats 10 wks old, 1% camostat in 30% glucose solution by gavage; without 38.4±18 min
Experimental: (§1) Eight male obese Zucker rats of a strain that becomes diabetic by 10 wks of age and 8 matched lean Zucker rats as controls were studied. After overnight fast, rats 10 wks old were fed by gavage a 30% glucose solution ([…] body weight) containing 150 μCi of ^99m Tc-SC. Each rat was tested with and without 1% camostat, a trypsin inhibitor known to stimulate CCK release, in the glucose solution. Gastric emptying was monitored by gamma scintigraphy at 10 min intervals. Fasting and 1 hr postprandial plasma glucose were determined.

[2] = system: lean Zucker rats; test: Gastric emptying by gamma scintigraphy with camostat, lean rats; format: in vivo; settings: lean Zucker rats 10 wks old, 1% camostat in 30% glucose solution by gavage; without 65.1±5.7 min
Experimental: as §1

[3] = system: obese diabetic Zucker rats; test: Fasting and 1 hr postprandial plasma glucose with camostat, diabetic rats; format: in vivo; settings: fasting to 1 hr postprandial, 1% camostat in 30% glucose solution, without Camostat 270-±18 mg/dl
Experimental: as §1

[4] = system: subjects with early NIDDM; test: Gastric emptying study (gamma camera, 99mTc-SC glucose solution) with CCK-8 infusion; format: in vivo, human
Description: Seven subjects with early NIDDM (diagnosed for less than 2 years) underwent two separate gastric emptying studies. Subjects were five men and two women ranging in age from 33 to 49 and previously diagnosed as diabetic according to current WHO criteria using a 75 g glucose tolerance test (OGTT) with blood sampled fasting and at 2 hr. All patients had been on oral hypoglycemic medication which was discontinued the evening prior to the study. All studies were begun between 7-8 am following a 12 hour fast.
An 18 gauge angiocatheter was placed in one antecubital fossa for blood drawing while another 18 gauge angiocatheter was placed in the other antecubital fossa for a 0.9% (normal saline) infusion ([…]). Gastric emptying studies utilizing a gamma camera (Scintronix USA, Inc., Woburn Mass.) were performed with a modified 0.62M (50 g glucose in 450 ml water) glucose solution. This solution has been used previously in gastric emptying studies (Schwartz, et al., 1990). […]
The subjects were then seated at a 90 degree angle in front of a gamma camera. […] Counts in the stomach region of interest were calculated in each 60 second image. After correcting for radioactive decay, the count rates were converted to a percentage of the maximum count rate recorded. […]

[5] = system: subjects with early NIDDM; test: Plasma glucose after glucose solution with CCK-8 infusion; format: in vivo, human; settings: iv CCK-8 infusion
Experimental: (§2) Blood samples were drawn from the indwelling 18 gauge angiocatheter in the antecubital fossa at 15 min intervals beginning just prior to ingestion of the glucose solution and ending at 120 min. Blood for glucose evaluation was collected in grey-top vacutainer tubes containing potassium oxalate and sodium fluoride. Blood for insulin and C-peptide was collected in red top tubes. Samples for hemoglobin A-1-C, gastric inhibitory polypeptide (GIP) and CCK were collected in lavender top tubes containing EDTA. All glass tubes were from Becton Dickinson Vacutainer Systems, Rutherford, N.J. Glucose analysis were performed on a Paramax instrument (Baxter Healthcare Corp., Irvine, Calif.). Hemoglobin A1C was performed by the micro column test (Bio-Rad, Hercules, Calif. 94547).
(§3) The second study was performed 3 days later. Subjects drank the glucose solution and a gastric emptying study was performed with simultaneous infusion of CCK (Kinevac™, Squibb Diagnostics Princeton, N.J. 08543) at 48 pM/kg/hr.
Infusions of the saline solution for the first test and the CCK solution for the second test were begun 10 min prior to ingestion of the glucose solution.

[6] = system: subjects with early NIDDM; test: Plasma GIP by radioimmunoassay with CCK-8 infusion; format: in vivo, human; settings: iv CCK-8 infusion; without CCK-8 420.4 pg/ml; P=0.0032
Experimental: as §2
(§4) The C-peptide assay was performed by Smith Kline Bioscience Laboratories, Van Nuys, Calif. by radioimmunoassay (Diagnostic Products, Los Angeles, Calif. 90045). The assay for insulin was performed by Smith Kline Bioscience Laboratory, St. Louis, Mo. by radioimmunoassay (Pharmacia Diagnostics, Fairfield, N.J. 07004). Assays for GIP and CCK were performed by radioimmunoassay by the Gastroenterology Unit at Mayo Clinic (Rochester, Minn. 55905) using in-house kits.
(§5) The second study was performed 3 days later. […]

[7] = system: subjects with early NIDDM; test: Serum insulin by radioimmunoassay with CCK-8 infusion; format: in vivo, human; settings: iv CCK-8 infusion
Experimental: as §2, §4, §5

[8] = Plasma CCK by radioimmunoassay with CCK-8 infusion; format: in vivo, human; settings: during iv CCK-8 infusion; without CCK-8 20.8 pmol/L; P=0.0247
Experimental: as §2, §4, §5

[9] = system: subjects with early NIDDM; test: Adverse effects during CCK-8 infusion; format: in vivo, human; settings: iv CCK-8 infusion, 2 hr
Experimental: as §3
None of the subjects reported any nausea or abdominal distress during the CCK-8 infusions.

Compound	gastric half-emptying time [1]	gastric half-emptying time [2]	incremental increase in plasma glucose [3]	gastric half-emptying time ([4]; average, 7 early NIDDM subjects, iv CCK infusion 48 pM/kg/hr, 50 g glucose in 450 ml, without CCK-8 40.9 min, P=0.0042)	average area under the gastric emptying curve during the 2-hr period, relative to the same patients not receiving CCK-8 ([4]; iv CCK-8 infusion, early NIDDM subjects, 2 hr)	average glucose excursion value during the 2-hr period, relative to saline infusion ([5]; 2 hr)	average glucose excursion value during the 2-hr period ([5]; saline 5.6 mmol/liter, P=0.0550)	average glucose concentration during the 2-hr period following the glucose meal ([5]; saline infusion 17.1, P=0.0073)	average GIP excursion over the 2 hr period [6]	average insulin concentration over the 2 hr period, relative to saline infusion ([7]; not statistically significant)	average insulin concentration over the 2 hr period ([7]; without CCK-8 44.2 μU/ml, P=0.1480)	average plasma CCK-8 excursion [8]	adverse effects (nausea, abdominal distress) during infusion [9]
CN(C)C(=O)COC(=O)Cc1ccc(OC(=O)c2ccc(NC(=N)N)cc2)cc1 [Camostat]	141 ± 33 min	167 ± 25 min	160 ± 15 mg/dL	–	–	–	–	–	–	–	–	–	–
CSCC[C@H](NC(=O)[C@H](Cc1ccc(OS(=O)(=O)O)cc1)NC(=O)[C@@H](N)CC(=O)O)C(=O)NCC(=O)N[C@@H](Cc1c[nH]c2ccccc12)C(=O)N[C@@H](CCSC)C(=O)N[C@@H](CC(=O)O)C(=O)N[C@@H](Cc1ccccc1)C(N)=O [CCK-8, Cholecystokinin-octapeptide]	–	–	–	94.2 min	175%	66%	3.7 mmol/L	14.0 mmol/L	266.4 pg/mL	68%	30.2 μU/ml	49.6 pmol/L	No adverse effects were reported or observed

Source: patent US5468727A, “Methods of normalizing metabolic parameters in diabetics” (Board of Regents, The University of Texas System, priority 1993, dated 1995)
